Here are results for three compounds from ChEMBL document CHEMBL1146394, “New antihepatotoxic cerebroside from Lycium chinense fruits” (1997).

One assay deals with Hepatocyte. Briefly: Antihepatotoxic activity against CCl4-induced cytotoxicity in rat hepatocytes assessed as blockade of sorbitol dehydrogenase release at 25 uM by modified Gerlach method relative to control. The assay is classed as functional.
Turning to `CCCCCCCCC/C=C\CC/C=C/[C@@H](O)[C@H](CO[C@@H]1O[C@H](CO)[C@@H](O)[C@H](O)[C@H]1O)NC(=O)CCCCCCCCCCCCCCC`, the Activity is on record as 80.2%.

As for `CCCCCCCCC/C=C\CC/C=C/[C@@H](O)[C@H](CO[C@@H]1O[C@H](CO)[C@@H](O)[C@H](O)[C@H]1O)NC(=O)C(O)CCCCCCCCCCCCCC` (stereo partly specified), the Activity stood at 69.5%.

`COc1cc(C2Oc3cc([C@H]4Oc5cc(O)cc(O)c5C(=O)[C@@H]4O)ccc3OC2CO)ccc1O` (stereo partly specified) [SILIBININ]: the Activity came out at 58.9%.

For the next assay, the system named is Hepatocyte. The assay can be described thus: Antihepatotoxic activity against CCl4-induced cytotoxicity in rat hepatocytes assessed as blockade of glutamic pyruvic transaminase release at 25 uM by Reitman-Frankel method relative to control. The assay is classed as functional.
For `CCCCCCCCC/C=C\CC/C=C/[C@@H](O)[C@H](CO[C@@H]1O[C@H](CO)[C@@H](O)[C@H](O)[C@H]1O)NC(=O)CCCCCCCCCCCCCCC`, the Activity is 95.6%.

Consider `CCCCCCCCC/C=C\CC/C=C/[C@@H](O)[C@H](CO[C@@H]1O[C@H](CO)[C@@H](O)[C@H](O)[C@H]1O)NC(=O)C(O)CCCCCCCCCCCCCC` (stereo partly specified), for which the Activity came out at 86.4%.

`COc1cc(C2Oc3cc([C@H]4Oc5cc(O)cc(O)c5C(=O)[C@@H]4O)ccc3OC2CO)ccc1O` (stereo partly specified) [SILIBININ]: the Activity was 76%.
